Assay [1] concerns the target ALK tyrosine kinase receptor (Homo sapiens, UniProt Q9UM73). As to the kind of experiment: Inhibition of 6xHis-tagged human NPM-ALK expressed in insect cells.
In assay [2] the target is Hepatocyte growth factor receptor (Homo sapiens, UniProt P08581). The assay can be described thus: Inhibition of recombinant MET.
The target of a further assay is Insulin receptor (Homo sapiens, UniProt P06213). The assay can be described thus: Inhibition of human recombinant IRK.
Assay [3] addresses Insulin-like growth factor 1 receptor (Homo sapiens, UniProt P08069). As to the kind of experiment: Inhibition of recombinant IGFR1.
The target of assay [4] is Tyrosine-protein kinase JAK2 (Homo sapiens, UniProt O60674). The assay can be described thus: Inhibition of recombinant JAK2.

pIC50: −log10 of the molar value. Where only a bound is given, the exact number is not on record here.

Insulin receptor, sequence (P06213 28-758 limits assumed): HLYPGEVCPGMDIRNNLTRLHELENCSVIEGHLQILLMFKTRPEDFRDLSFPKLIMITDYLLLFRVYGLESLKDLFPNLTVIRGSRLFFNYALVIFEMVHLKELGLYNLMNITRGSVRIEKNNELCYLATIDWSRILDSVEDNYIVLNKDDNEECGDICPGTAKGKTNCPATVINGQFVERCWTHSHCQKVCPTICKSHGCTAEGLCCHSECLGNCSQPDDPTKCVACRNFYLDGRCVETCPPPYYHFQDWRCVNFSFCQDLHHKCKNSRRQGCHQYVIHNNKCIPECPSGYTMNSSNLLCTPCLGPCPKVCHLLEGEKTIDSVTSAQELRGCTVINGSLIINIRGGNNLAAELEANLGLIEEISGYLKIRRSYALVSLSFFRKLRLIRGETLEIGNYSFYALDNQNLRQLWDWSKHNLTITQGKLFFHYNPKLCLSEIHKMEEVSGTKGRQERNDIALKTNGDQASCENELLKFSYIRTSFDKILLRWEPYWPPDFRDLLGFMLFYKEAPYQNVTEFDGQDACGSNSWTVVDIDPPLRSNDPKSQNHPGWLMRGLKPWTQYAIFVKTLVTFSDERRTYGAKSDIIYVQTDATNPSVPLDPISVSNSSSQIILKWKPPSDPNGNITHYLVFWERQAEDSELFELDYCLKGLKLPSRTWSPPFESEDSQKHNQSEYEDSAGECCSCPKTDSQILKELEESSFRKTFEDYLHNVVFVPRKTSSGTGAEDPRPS
Insulin receptor, sequence (P06213 763-1382 limits assumed): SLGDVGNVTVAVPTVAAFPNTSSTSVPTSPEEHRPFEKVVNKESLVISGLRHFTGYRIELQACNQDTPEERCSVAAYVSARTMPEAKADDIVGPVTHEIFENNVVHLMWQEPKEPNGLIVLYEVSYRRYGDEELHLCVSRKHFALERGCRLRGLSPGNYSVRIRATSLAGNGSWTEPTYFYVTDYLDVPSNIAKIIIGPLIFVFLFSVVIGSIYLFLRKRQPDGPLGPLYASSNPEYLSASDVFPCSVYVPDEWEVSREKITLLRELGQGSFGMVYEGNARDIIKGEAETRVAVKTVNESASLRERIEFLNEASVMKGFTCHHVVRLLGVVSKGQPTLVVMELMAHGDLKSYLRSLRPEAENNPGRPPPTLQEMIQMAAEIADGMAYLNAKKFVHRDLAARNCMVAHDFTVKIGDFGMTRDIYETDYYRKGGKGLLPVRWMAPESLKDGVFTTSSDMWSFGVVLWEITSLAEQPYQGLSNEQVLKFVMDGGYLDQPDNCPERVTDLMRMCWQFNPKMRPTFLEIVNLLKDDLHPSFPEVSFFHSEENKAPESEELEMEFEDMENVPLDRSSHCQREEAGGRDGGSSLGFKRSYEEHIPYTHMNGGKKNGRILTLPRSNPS
Insulin-like growth factor 1 receptor, sequence (P08069 31-736 limits assumed): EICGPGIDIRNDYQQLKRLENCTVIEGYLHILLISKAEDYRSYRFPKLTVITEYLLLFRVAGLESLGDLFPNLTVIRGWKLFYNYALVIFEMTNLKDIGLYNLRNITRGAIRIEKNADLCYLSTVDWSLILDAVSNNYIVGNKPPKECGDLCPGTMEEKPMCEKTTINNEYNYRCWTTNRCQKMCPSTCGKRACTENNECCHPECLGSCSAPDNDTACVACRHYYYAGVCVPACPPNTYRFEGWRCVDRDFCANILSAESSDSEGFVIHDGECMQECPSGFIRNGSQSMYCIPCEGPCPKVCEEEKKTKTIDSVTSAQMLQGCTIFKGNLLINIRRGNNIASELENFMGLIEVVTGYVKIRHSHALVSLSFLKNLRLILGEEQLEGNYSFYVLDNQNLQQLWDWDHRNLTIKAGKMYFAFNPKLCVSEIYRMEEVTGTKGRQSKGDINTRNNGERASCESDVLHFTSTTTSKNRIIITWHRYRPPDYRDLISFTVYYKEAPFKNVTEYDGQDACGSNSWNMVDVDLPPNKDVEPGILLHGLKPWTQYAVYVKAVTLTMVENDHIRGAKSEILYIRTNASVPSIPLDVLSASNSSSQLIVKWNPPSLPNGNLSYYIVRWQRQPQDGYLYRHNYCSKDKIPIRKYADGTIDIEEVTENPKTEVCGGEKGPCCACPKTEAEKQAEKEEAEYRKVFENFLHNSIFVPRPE
Insulin-like growth factor 1 receptor, sequence (P08069 741-1367 limits assumed): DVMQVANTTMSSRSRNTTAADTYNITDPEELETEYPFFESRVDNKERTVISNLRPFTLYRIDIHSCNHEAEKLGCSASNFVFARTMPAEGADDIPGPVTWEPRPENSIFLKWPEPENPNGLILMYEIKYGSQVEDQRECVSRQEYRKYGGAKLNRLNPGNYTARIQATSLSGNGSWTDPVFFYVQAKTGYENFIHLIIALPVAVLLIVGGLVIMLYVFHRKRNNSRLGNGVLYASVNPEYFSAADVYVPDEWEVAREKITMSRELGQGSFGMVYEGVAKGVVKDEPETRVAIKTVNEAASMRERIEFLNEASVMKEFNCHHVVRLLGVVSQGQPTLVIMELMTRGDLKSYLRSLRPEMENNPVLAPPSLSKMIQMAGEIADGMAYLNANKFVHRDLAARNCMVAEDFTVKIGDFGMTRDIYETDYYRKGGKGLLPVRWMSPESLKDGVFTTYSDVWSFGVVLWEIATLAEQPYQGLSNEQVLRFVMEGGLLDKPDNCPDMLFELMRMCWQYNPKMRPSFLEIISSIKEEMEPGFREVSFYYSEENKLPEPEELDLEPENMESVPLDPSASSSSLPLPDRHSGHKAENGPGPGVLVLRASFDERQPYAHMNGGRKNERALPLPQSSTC
ALK tyrosine kinase receptor, sequence (Q9UM73 19-1620 limits assumed): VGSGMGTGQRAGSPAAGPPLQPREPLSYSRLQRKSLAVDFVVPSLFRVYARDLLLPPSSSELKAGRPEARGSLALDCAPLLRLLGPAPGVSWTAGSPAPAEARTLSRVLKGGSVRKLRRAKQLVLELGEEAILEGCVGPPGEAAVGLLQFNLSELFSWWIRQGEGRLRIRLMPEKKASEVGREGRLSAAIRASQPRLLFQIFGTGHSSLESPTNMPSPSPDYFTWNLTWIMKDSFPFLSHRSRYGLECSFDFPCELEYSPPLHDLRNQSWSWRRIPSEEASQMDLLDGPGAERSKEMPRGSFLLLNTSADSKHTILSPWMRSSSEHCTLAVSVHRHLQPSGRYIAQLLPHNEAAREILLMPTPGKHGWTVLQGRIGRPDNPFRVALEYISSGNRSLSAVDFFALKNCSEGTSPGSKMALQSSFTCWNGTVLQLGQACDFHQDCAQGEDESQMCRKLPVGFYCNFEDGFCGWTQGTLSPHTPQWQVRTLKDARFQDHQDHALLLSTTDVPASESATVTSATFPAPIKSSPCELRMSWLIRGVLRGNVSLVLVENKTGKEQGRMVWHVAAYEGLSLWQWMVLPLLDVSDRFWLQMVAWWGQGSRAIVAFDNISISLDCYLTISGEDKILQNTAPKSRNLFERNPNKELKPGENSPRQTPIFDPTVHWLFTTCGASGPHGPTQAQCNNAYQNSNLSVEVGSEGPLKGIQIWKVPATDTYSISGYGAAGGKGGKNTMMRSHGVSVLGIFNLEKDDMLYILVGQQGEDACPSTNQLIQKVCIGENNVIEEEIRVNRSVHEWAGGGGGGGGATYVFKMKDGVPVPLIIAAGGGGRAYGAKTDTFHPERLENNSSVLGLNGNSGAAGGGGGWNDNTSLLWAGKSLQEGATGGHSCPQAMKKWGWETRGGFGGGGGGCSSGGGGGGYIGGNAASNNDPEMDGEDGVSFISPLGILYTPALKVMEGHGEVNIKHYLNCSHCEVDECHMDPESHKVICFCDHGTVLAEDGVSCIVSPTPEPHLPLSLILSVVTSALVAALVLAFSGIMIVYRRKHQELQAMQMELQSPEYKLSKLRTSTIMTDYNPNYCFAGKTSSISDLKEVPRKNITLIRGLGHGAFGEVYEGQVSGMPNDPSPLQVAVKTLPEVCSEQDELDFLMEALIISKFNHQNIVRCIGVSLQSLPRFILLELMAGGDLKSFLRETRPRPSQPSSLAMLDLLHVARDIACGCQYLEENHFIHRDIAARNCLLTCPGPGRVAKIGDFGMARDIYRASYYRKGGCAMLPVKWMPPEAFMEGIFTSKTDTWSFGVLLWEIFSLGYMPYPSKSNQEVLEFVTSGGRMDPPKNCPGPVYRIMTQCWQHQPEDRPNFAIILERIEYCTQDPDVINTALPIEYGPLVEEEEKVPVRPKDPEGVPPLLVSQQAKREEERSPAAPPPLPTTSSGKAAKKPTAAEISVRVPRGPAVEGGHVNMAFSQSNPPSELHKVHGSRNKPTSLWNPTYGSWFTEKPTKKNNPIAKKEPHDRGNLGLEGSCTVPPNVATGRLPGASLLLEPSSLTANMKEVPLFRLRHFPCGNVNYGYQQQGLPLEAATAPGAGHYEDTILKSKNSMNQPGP

The pIC50 is the IC50 on a negative log10 scale, so that one unit is a factor of ten. Regarding `Brc1ccc2[nH]c3c(c2c1)CCN(CC(c1ccccc1)c1ccccc1)c1nccc(I)c1-3`, the pIC50 in assay [1] is 5.30; in assay [2], 5.07; on Insulin receptor it was less than 4.40.
For the compound `COc1nc(C)cc2c1-c1[nH]c3cc(N4CCN(C)CC4)ccc3c1CCN2CCc1ccccc1`, the pIC50 is 5.35 in assay [3]; 5.29 in assay [1]; 5.29 in assay [4]; 5.26 in assay [2]; 5.46 at Insulin receptor.
Consider `Clc1nccc2c1-c1[nH]c3ccc(Br)cc3c1CCN2CC(c1ccccc1)c1ccccc1`, for which the pIC50 (in assay [1]; in assay [2]; on Insulin receptor) was less than 4.40 in each case.
`C[C@@H](c1ccccc1)N1CCc2c([nH]c3ccc(Br)cc23)-c2c1ccnc2Cl`: the pIC50 was 5.24 in assay [1], 4.89 in assay [2] and 4.92 on Insulin receptor.
With `Oc1ccc(CCN2CCc3c([nH]c4ccc(Br)cc34)-c3c(I)ccnc32)cc1`, the results for the pIC50 (in assay [1]; in assay [2]; on Insulin receptor) were 5.21, 5.01 and 4.95, respectively.
In the case of `Cc1cc2c(c(Cl)n1)-c1[nH]c3ccccc3c1CCN2CCc1ccccc1`, the pIC50 in assay [3] was 4.61; in assay [1], 4.67; in assay [4], 4.47; in assay [2] it was 4.58; at Insulin receptor, 4.52.
On to `C[C@@H](c1ccccc1)N1CCc2c([nH]c3ccc(Br)cc23)-c2c(I)ccnc21`, for which the pIC50 is 5.08 in assay [1], less than 4.40 in assay [2] and less than 4.40 on Insulin receptor.
On to `Clc1nccc2c1-c1[nH]c3ccc(Br)cc3c1CCN2CCc1c[nH]c2ccccc12`, for which the pIC50 in assay [1] is 5.03; in assay [2] it was less than 4.40; on Insulin receptor it was less than 4.40.
Consider `Cc1cc(Cl)c2c(n1)N(CCc1ccccc1)CCc1c-2[nH]c2ccccc12`, for which the pIC50 in assay [3] was 4.90; in assay [1], 4.93; in assay [4], less than 4.40; in assay [2], 4.91; at Insulin receptor it was 4.70.
The corresponding values for `COc1cc(C)nc2c1-c1[nH]c3ccccc3c1CCN2CCc1ccccc1` are less than 4.40, less than 4.40, less than 4.40, less than 4.40 and less than 4.40.
With `COc1nc(C)cc2c1-c1[nH]c3ccccc3c1CCN2CCc1ccccc1`, the pIC50 (in assay [3]; in assay [1]; in assay [4]; in assay [2]; at Insulin receptor) was less than 4.40 each time.
`Cc1cc2c(c(=O)[nH]1)-c1[nH]c3ccccc3c1CCN2CCc1ccccc1`: the pIC50 in assay [3] was 4.93; in assay [1], 4.74; in assay [4] it was 4.77; in assay [2], 4.71; at Insulin receptor, 4.81.
With `Oc1ccc(CCN2CCc3c([nH]c4ccc(Br)cc34)-c3c2ccnc3Cl)cc1`, the pIC50 was 5.15 in assay [1], 4.90 in assay [2] and less than 4.40 on Insulin receptor.

For the origin of these results see ChEMBL document CHEMBL1151875, “Design and synthesis of a novel tyrosine kinase inhibitor template” (Bioorg Med Chem, 2009).
